Measurements reported in ChEMBL document CHEMBL4819104, “Discovery of 2-amino-3-amido-5-aryl-pyridines as highly potent, orally bioavailable, and efficacious PERK kinase inhibitors” (Bioorg Med Chem Lett, 2021).
Values after ≈ are worked out from the molar mass of the structure shown.

Key:
[1] = molecular target: Platelet-derived growth factor receptor beta (Homo sapiens) (UniProt P09619); test: Inhibition of wild-type human partial length PDGFRbeta (V582 to Y1009 residues) expressed in bacterial expression system assessed as residual activity at 10 uM by Kinomescan method relative to control
Chain of Platelet-derived growth factor receptor beta (Homo sapiens) (P09619 whole entry, the tested form may be a part): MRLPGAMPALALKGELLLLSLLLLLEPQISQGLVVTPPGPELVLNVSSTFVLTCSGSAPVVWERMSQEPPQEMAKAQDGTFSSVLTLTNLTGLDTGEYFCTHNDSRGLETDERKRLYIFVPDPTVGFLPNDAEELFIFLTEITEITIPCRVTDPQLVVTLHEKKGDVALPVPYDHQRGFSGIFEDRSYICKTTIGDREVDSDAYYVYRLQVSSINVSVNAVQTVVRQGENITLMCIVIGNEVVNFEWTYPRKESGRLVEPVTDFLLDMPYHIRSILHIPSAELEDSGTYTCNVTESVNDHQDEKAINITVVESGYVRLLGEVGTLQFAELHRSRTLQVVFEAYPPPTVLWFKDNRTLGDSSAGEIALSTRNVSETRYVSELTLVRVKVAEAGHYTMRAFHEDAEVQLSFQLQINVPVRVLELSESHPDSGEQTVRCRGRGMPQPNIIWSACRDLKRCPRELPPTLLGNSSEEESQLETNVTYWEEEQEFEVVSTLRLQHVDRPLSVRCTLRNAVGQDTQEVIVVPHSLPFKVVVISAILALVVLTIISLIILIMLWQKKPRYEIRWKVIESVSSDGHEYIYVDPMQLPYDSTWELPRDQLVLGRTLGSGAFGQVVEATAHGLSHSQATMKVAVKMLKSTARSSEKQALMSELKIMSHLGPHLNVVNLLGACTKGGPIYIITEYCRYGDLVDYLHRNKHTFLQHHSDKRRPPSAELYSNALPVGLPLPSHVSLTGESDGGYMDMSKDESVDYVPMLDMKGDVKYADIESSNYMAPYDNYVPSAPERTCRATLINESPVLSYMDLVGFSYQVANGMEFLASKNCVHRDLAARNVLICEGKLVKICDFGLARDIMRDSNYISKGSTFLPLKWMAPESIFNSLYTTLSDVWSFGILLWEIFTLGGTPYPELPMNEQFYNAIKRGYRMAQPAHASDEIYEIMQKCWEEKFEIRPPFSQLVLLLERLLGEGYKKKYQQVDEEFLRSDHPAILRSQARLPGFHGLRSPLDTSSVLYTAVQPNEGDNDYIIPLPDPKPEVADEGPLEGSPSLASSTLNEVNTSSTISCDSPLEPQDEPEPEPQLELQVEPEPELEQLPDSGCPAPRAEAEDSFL

[2] = tested on: Tyrosine-protein kinase ABL1 (Homo sapiens), P00519 [F317L]; test: Inhibition of human non-phosphorylated ABL1 F317L mutant (S229 to K512 residues) expressed in mammalian expression system assessed as residual activity at 10 uM by Kinomescan method relative to control
[3] = molecular target: Aurora kinase B (Homo sapiens) (UniProt Q96GD4); test: Inhibition of wild-type human partial length AURKB (D25 to A303 residues) expressed in mammalian expression system assessed as residual activity at 10 uM by Kinomescan method relative to control
Chain of Aurora kinase B (Homo sapiens) (Q96GD4 whole entry, the tested form may be a part): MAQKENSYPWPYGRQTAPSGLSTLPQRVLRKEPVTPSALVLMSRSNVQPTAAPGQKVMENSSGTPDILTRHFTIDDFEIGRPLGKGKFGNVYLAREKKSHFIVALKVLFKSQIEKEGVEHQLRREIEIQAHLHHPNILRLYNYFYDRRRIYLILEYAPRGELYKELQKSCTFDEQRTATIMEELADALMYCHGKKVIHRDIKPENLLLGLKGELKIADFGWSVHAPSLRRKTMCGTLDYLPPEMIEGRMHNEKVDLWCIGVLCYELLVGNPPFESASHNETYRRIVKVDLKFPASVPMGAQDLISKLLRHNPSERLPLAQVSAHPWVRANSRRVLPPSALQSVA

[4] = molecular target: Proto-oncogene tyrosine-protein kinase Src (Homo sapiens) (UniProt P12931); test: Inhibition of wild-type human partial length SRC (L240 to L536 residues) expressed in bacterial expression system assessed as residual activity at 10 uM by Kinomescan method relative to control
[5] = molecular target: Macrophage colony-stimulating factor 1 receptor (Homo sapiens) (UniProt P07333); test: Inhibition of wild-type human partial length CSF1R (I564 to S939 residues) expressed in bacterial expression system assessed as residual activity at 10 uM by Kinomescan method relative to control
Chain of Macrophage colony-stimulating factor 1 receptor (Homo sapiens) (P07333 whole entry, the tested form may be a part): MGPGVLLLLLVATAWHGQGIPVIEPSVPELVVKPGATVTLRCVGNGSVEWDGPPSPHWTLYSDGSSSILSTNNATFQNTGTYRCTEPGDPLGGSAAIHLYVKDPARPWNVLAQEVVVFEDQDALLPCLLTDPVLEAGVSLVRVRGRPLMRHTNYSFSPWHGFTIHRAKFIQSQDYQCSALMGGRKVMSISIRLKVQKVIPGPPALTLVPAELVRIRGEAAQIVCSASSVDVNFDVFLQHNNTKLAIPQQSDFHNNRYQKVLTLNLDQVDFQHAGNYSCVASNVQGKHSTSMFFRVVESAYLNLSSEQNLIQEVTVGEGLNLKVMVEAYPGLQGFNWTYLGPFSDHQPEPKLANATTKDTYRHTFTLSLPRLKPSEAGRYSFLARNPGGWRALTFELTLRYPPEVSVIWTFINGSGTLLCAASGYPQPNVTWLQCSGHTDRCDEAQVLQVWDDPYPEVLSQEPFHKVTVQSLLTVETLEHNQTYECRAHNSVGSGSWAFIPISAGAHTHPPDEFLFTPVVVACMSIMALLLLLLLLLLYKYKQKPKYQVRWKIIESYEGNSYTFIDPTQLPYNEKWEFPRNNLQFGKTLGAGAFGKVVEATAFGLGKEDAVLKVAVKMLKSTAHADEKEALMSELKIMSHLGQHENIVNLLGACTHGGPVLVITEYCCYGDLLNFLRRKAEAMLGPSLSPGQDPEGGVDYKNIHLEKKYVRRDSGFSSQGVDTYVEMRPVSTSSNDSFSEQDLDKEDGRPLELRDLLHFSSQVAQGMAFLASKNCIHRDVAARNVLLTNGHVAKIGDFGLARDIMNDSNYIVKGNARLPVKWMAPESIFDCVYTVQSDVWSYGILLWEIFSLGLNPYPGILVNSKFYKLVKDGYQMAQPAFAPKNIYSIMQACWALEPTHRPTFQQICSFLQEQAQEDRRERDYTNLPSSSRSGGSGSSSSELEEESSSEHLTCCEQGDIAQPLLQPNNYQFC

[6] = molecular target: BDNF/NT-3 growth factors receptor (Homo sapiens) (UniProt Q16620); test: Inhibition of wild-type human partial length TRKB (Q547 to G838 residues) expressed in mammalian expression system assessed as residual activity at 10 uM by Kinomescan method relative to control
Chain of BDNF/NT-3 growth factors receptor (Homo sapiens) (Q16620 32-822 limits assumed): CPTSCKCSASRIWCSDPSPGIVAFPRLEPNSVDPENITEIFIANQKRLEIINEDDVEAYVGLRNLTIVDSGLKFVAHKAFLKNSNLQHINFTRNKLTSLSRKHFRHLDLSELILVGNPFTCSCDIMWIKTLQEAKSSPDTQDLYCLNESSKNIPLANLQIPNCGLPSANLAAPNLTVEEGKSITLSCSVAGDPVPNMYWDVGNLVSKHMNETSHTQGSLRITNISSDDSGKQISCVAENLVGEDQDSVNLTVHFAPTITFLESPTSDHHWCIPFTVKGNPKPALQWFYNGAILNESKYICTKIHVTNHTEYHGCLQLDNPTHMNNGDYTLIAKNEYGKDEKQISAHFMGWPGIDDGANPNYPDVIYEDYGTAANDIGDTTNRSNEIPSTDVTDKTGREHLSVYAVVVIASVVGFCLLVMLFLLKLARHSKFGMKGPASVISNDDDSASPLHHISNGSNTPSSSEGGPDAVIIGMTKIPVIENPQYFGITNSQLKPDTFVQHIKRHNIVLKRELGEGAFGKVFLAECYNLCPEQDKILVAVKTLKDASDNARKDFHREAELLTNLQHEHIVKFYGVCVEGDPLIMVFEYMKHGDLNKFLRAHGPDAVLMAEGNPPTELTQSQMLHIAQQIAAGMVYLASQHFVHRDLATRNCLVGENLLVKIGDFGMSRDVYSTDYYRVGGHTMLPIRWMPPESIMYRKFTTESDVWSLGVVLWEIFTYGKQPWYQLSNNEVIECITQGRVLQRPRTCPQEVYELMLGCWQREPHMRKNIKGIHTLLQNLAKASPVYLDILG

[7] = molecular target: Mast/stem cell growth factor receptor Kit (Homo sapiens) (UniProt P10721); test: Inhibition of wild-type human partial length KIT (I571 to D952 residues) expressed in bacterial expression system assessed as residual activity at 10 uM by Kinomescan method relative to control
Chain of Mast/stem cell growth factor receptor Kit (Homo sapiens) (P10721 whole entry, the tested form may be a part): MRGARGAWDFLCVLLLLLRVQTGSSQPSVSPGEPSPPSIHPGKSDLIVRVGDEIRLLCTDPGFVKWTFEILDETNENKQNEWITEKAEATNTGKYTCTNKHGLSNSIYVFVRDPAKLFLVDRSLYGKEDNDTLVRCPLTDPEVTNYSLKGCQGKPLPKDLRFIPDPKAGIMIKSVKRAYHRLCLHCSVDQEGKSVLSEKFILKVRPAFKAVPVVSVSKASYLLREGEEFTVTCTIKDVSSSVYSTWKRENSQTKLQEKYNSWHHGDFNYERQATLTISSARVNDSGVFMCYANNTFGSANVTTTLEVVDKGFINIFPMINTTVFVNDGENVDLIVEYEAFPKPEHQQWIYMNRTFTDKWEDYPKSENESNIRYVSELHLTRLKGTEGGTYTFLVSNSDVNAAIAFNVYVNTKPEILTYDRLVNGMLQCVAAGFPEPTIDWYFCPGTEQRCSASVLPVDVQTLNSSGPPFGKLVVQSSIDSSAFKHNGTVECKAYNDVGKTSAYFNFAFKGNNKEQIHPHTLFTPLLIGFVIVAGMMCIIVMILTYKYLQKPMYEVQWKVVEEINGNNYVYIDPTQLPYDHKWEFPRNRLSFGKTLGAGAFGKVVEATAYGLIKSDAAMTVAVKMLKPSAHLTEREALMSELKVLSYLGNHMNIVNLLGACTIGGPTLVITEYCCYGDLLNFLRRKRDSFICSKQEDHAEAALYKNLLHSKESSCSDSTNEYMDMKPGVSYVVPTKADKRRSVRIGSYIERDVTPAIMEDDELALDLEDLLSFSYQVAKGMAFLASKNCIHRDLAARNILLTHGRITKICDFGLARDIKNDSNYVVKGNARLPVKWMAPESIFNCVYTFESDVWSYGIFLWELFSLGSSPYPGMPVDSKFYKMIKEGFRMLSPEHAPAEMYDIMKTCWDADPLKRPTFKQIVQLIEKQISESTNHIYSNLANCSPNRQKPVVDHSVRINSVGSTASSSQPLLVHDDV

[8] = molecular target: Angiopoietin-1 receptor (Homo sapiens) (UniProt Q02763); test: Inhibition of wild-type human partial length TIE2 (N804 to T1112 residues) expressed in bacterial expression system assessed as residual activity at 10 uM by Kinomescan method relative to control
[9] = molecular target: T1, Mitogen-activated protein kinase 12 (Homo sapiens) (UniProt P53778); test: Inhibition of wild-type human full length p38-gamma (M1 to L367 residues) expressed in mammalian expression system assessed as residual activity at 10 uM by Kinomescan method relative to control
T1 sequence (whole entry): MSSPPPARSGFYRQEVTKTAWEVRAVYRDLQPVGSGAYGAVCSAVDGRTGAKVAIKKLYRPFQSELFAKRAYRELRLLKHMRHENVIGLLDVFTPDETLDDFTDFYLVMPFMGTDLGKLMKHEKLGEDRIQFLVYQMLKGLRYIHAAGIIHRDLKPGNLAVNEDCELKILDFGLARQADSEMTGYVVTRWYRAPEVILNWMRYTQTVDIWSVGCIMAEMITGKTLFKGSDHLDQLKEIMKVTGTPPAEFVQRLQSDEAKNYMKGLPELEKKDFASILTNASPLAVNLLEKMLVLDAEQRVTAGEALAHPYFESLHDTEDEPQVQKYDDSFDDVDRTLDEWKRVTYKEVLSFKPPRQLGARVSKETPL

[10] = molecular target: Tyrosine-protein kinase receptor UFO (Homo sapiens) (UniProt P30530); test: Inhibition of wild-type human partial length AXL (R497 to Y821 residues) expressed in bacterial expression system assessed as residual activity at 10 uM by Kinomescan method relative to control
[11] = molecular target: T2, Receptor-interacting serine/threonine-protein kinase 1 (Homo sapiens) (UniProt Q13546); test: Inhibition of wild-type human partial length RIPK1 (M1 to K305 residues) expressed in bacterial expression system assessed as residual activity at 10 uM by Kinomescan method relative to control
T2 sequence (whole entry): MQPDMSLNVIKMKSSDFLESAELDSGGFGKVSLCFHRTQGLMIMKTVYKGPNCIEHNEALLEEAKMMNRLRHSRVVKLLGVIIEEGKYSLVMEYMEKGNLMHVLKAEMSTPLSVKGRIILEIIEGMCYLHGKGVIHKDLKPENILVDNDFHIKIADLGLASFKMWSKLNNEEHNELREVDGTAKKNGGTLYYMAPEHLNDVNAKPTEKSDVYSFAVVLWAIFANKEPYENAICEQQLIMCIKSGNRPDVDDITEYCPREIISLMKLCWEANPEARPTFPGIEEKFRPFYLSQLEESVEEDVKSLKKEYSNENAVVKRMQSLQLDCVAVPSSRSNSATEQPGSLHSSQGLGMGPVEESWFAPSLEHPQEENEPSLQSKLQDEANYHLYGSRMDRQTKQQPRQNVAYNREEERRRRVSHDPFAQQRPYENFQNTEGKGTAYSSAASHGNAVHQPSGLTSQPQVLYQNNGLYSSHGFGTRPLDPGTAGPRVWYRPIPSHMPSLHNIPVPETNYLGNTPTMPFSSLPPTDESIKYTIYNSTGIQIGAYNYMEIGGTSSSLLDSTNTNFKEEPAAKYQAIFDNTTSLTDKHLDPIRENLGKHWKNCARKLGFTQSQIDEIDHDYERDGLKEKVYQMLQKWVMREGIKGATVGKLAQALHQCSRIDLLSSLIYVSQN

[12] = molecular target: Epithelial discoidin domain-containing receptor 1 (Homo sapiens) (UniProt Q08345); test: Inhibition of wild-type human partial length DDR1 (R565 to V876 residues) expressed in bacterial expression system assessed as residual activity at 10 uM by Kinomescan method relative to control
Chain of Epithelial discoidin domain-containing receptor 1 (Homo sapiens) (Q08345 whole entry, the tested form may be a part): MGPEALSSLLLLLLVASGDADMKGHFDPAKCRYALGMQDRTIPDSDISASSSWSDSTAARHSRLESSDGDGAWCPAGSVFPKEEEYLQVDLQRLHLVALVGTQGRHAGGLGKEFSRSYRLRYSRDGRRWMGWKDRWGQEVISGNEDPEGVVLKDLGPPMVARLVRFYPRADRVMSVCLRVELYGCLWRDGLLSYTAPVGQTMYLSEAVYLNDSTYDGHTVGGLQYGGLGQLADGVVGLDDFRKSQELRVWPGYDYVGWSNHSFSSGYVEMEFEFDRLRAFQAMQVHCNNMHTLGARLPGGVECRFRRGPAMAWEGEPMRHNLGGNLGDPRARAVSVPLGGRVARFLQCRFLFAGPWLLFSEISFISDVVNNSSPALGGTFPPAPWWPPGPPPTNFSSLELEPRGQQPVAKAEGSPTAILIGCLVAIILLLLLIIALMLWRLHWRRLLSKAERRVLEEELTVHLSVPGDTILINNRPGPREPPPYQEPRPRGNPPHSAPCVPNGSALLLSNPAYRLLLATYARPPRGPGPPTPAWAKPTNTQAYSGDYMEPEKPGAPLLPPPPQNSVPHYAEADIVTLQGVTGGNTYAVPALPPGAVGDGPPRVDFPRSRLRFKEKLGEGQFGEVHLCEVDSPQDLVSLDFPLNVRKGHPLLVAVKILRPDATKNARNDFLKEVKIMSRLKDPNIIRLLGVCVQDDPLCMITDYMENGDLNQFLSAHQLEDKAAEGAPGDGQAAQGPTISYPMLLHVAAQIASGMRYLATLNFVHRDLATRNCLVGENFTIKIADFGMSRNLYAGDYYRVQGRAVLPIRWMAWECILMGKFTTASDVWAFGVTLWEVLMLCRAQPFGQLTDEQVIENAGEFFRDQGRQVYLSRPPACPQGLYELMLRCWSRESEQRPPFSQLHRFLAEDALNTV

[13] = Half life in mouse at 10 mg/kg, po; type: ADME, organism-based; settings: in vivo
[14] = Cmax in mouse at 10 mg/kg, po; type: ADME, organism-based; set-up: route oral, dose 10 mg/kg; settings: in vivo
[15] = Half life in rat hepatocytes; type: ADME, cell-based, Hepatocyte
[16] = Half life in mouse hepatocytes; type: ADME, cell-based, Hepatocyte
[17] = Aqueous solubility of the compound; type: physicochemical; settings: buffer
[18] = Plasma protein binding in human; type: ADME, cell-free; settings: read-out: PPB (converted)
[19] = Plasma protein binding in dog; type: ADME, cell-free, Canis lupus familiaris; settings: read-out: PPB (converted)
[20] = AUC (0 to last) in mouse at 10 mg/kg, po; type: ADME, organism-based; set-up: time 0 - last, route oral, dose 10 mg/kg; settings: in vivo
[21] = Half life in dog hepatocytes; type: ADME, cell-based, Canis lupus familiaris, Hepatocyte
[22] = Efflux ratio of apparent permeability in human Caco-2 cells; type: ADME, cell-based
[23] = Apparent permeability of the compound across apical to basolateral side in human Caco-2 cells; type: ADME, cell-based; settings: read-out: permeability
[24] = Plasma protein binding in mouse; type: ADME, cell-free; settings: read-out: PPB (converted)
[25] = molecular target: T3, Eukaryotic translation initiation factor 2-alpha kinase 3 (Homo sapiens, UniProt Q9NZJ5); test: Inhibition of human His-tagged PERK expressed in Escherichia coli assessed as eIF2alpha phosphorylation by TR-FRET assay
T3 sequence (Q9NZJ5 whole entry): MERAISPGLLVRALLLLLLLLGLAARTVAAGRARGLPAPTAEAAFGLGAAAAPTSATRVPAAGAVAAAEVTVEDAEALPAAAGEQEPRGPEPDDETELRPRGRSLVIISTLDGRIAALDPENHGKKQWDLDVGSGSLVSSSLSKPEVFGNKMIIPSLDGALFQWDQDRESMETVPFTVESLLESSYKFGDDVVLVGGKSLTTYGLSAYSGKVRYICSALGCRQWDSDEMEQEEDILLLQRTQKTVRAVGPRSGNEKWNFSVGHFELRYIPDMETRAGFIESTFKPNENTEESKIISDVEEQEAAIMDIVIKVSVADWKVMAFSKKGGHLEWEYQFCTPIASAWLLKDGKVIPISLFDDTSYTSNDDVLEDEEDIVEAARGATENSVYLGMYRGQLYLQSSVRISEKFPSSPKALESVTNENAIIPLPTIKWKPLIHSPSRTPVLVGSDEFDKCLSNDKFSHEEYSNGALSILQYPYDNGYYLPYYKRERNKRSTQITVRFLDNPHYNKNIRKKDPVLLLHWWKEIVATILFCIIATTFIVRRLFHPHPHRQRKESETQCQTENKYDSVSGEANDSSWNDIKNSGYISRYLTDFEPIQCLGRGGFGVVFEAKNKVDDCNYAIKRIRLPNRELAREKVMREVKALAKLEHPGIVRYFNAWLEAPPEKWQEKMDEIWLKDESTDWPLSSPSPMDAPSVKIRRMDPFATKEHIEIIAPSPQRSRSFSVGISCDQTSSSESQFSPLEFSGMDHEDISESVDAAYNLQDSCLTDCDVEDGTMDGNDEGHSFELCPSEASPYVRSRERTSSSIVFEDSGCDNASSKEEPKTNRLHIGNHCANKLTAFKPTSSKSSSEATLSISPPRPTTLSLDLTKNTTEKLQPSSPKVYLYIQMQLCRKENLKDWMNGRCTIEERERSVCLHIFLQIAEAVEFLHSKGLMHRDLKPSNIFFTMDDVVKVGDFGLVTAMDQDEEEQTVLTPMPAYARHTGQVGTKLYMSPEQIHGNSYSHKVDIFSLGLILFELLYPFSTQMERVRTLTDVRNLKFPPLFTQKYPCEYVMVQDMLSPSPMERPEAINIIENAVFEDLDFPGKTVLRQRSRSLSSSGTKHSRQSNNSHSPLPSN

[26] = Half life in human hepatocytes; type: ADME, cell-based, Hepatocyte
[27] = Plasma protein binding in rat; type: ADME, cell-free; settings: read-out: PPB (converted)
[28] = Oral bioavailability in mouse at 10 mg/kg; type: ADME, organism-based; settings: in vivo

For `Cc1cccc(CC(=O)N2CCc3c2ccc(-c2cn(C)c4ncnc(N)c24)c3F)n1`, the Activity [1] was 0.2%, the Activity [2] was 0% and the Activity [3] was 5.3%. It also gave an Activity [4] of 7%, an Activity [5] of 1.8% and an Activity [6] of 6.5%. It also gave an Activity [7] of 0.1%, an Activity [8] of 5.3% and an Activity [9] of 3.7%. The Activity [10] was 8.2%, the Activity [11] was 0% and the Activity [12] was 1.3%.
Compound `Cc1cc(NC(=O)[C@H](O)c2cc(F)cc(F)c2)ccc1-c1cnc(N)c(C(=O)NC(C)C)c1` has a half-life [13] of 1.2 h, a Cmax [14] of 1600 ng/mL and a half-life [15] of 9.3 min. It also gave a half-life [16] of 1.15 h, a solubility [17] of 31 µM (≈ 14.1 µg/mL) and a fraction unbound [18] of 0.007. The fraction unbound [19] was 0.014, the AUC(0-t) [20] was 2000 ng·h/mL and the half-life [21] was 3.12 h. It also gave an efflux ratio [22] of 2, a Papp A→B [23] of 15 ×10⁻⁶ cm/s and a fraction unbound [24] of 0.017. It also gave an IC50 [25] of 4 nM, a half-life [26] of 4.08 h and a fraction unbound [27] of 0.024. It also gave a bioavailability [28] of 49%.
